According to patent publication US20240174618A1, “SUBSTITUTED (2-HETEROARYLOXYPHENYL)SULFONATES, SALTS THEREOF AND THEIR USE AS HERBICIDAL AGENTS” (Bayer Aktiengesellschaft, priority 2021, published 2024):

Assays:
Assay type in all cases: in vivo
[1] = system: Lolium rigidum (LOLRI); test: C. Herbicidal pre-emergence efficacy, LOLRI; conditions: scored after about 3 weeks
Text: Seeds of monocotyledonous and dicotyledonous weed plants and crop plants were placed in plastic or organic planting pots and covered with soil. The compounds of the invention, formulated in the form of wettable powders (WP) or as emulsion concentrates (EC), were then applied to the surface of the covering soil as aqueous suspension or emulsion with addition of 0.5% additive at a water application rate equivalent to 600 l/ha (converted). After the treatment, the pots were placed in a greenhouse and kept under good growth conditions for the test plants. After about 3 weeks, the efficacy of the preparations was scored visually in comparison with untreated controls as percentages. For example, • 100% efficacy=plants have died, • 0% efficacy=like untreated control plants.
Tables C1a to C14b below show the effects of selected compounds of the general formula (I) according to table 1 on various harmful plants at an application rate corresponding to 320 g/ha or less, which were obtained by the experimental procedure mentioned above.

[2] = system: Matricaria inodora (MATIN); test: A. Herbicidal pre-emergence efficacy, MATIN
How it was run: (§1)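 Applied before emergence onto covering soil at rates of 1280 g/ha or less, using 600 L/ha spray water with 0.5% additive. Scoring: visual % efficacy after ~3 weeks, greenhouse.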

[3] = system: Polygonum convolvulus (POLCO); test: E. Herbicidal post-emergence efficacy, POLCO
Experimental: Seeds of monocotyledonous and dicotyledonous weeds and crop plants were placed in sandy loam in plastic or organic planting pots, covered with soil and cultivated in a greenhouse under controlled growth conditions. 2 to 3 weeks after sowing, the test plants were treated at the one-leaf stage. The compounds of the invention, formulated in the form of wettable powders (WP) or as emulsion concentrates (EC), were then sprayed onto the green parts of the plants as aqueous suspension or emulsion with addition of 0.5% additive at a water application rate of 600 l/ha (converted). After the test plants had been kept in the greenhouse under optimum growth conditions for about 3 weeks, the activity of the preparations was rated visually in comparison to untreated controls.
For example, • 100% efficacy=plants have died, • 0% action=like untreated control plants.
Tables E1a to E12b below show the effects of selected compounds of the general formula (I) according to table 1 on various harmful plants at an application rate corresponding to 320 g/ha or less, which were obtained by the experimental procedure mentioned above.

[4] = system: Veronica persica (VERPE); test: E. Herbicidal post-emergence efficacy, VERPE
How it was run: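 Compounds applied at 320 g/ha or less as a foliar spray (600 l/ha, 0.5% additive) to one-leaf-stage greenhouse plants grown in sandy loam. Damage is visually scored in percent relative to untreated plants after about 3 weeks.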

[5] = system: Amaranthus retroflexus (AMARE); test: C. Herbicidal pre-emergence efficacy, AMARE; conditions: scored after about 3 weeks
How it was run: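 Pre-emergence test: formulated compounds sprayed as aqueous suspension or emulsion with 0.5% additive at 600 l/ha onto soil covering sown seeds, at rates corresponding to 320 g/ha or less. After about 3 weeks in greenhouse, efficacy scored visually as percent versus untreated controls (100% = plants dead).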

[6] = system: Poa annua (POAAN); test: A. Herbicidal pre-emergence efficacy, POAAN
How it was run: as §1

[7] = system: Stellaria media (STEME); test: B. Herbicidal post-emergence efficacy, STEME
How it was run: (§2)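 Weeds grown in sandy loam in greenhouse pots, sprayed at one-leaf stage (2–3 weeks after sowing) with WP or EC formulations as aqueous suspension/emulsion plus 0.5% additive at 600 L/ha water, rates up to 1280 g/ha. Visual efficacy rated about 3 weeks later versus untreated controls (0% = like control, 100% = dead).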

[8] = system: Abutilon theophrasti (ABUTH); test: B. Herbicidal post-emergence efficacy, ABUTH; conditions: rated visually after about 3 weeks
How it was run: as §2

[9] = 320 g/ha, scored visually after about 3 weeks vs untreated controls
[10] = pre-emergence, dosage 1280 g/ha

Row | SMILES | Pre-emergence efficacy against LOLRI ([1]; 320 g/ha) [%] | Pre-emergence efficacy against MATIN [2, 9] [%] | Pre-emergence efficacy against MATIN [2, 10] [%] | Post-emergence efficacy against POLCO in % ([3]; application rate 80 g/ha) [%] | Post-emergence efficacy against POLCO in % ([3]; application rate 320 g/ha) [%] | Post-emergence efficacy against VERPE in % ([4]; application rate 80 g/ha) [%] | Post-emergence efficacy against VERPE in % ([4]; application rate 320 g/ha) [%] | Pre-emergence efficacy against AMARE ([5]; 80 g/ha) [%] | Pre-emergence efficacy against AMARE ([5]; 320 g/ha) [%] | Pre-emergence efficacy against POAAN ([6]; dosage 80 g/ha) [%] | Pre-emergence efficacy against POAAN ([6]; dosage 320 g/ha) [%] | Pre-emergence efficacy against POAAN ([6]; dosage 1280 g/ha) [%] | Post-emergence efficacy against STEME ([7]; 80 g/ha) [%] | Post-emergence efficacy against STEME ([7]; 320 g/ha) [%] | Post-emergence efficacy against STEME ([7]; 1280 g/ha) [%] | Pre-emergence efficacy against LOLRI ([1]; 80 g/ha) [%] | Post-emergence efficacy against ABUTH in % ([8]; 80 g/ha) [%] | Post-emergence efficacy against ABUTH in % ([8]; 320 g/ha) [%] | Post-emergence efficacy against ABUTH in % ([8]; 1280 g/ha) [%]
1 | O=S(=O)(CCC(F)(F)F)Oc1c(F)cccc1Oc1ncc(Br)cn1 [Example I-40] | 100 | 100 | 100 | 100 | 100 | 100 | 100 | 100 | 100 | 100 | 100 | 100 | – | – | – | – | – | – | –
2 | O=S(=O)(CCCC(F)F)Oc1c(F)cccc1Oc1ncc(Cl)cn1 [Example I-56] | 100 | – | 100 | – | 100 | 100 | 100 | 100 | 100 | 90 | 100 | 100 | 90 | 90 | 90 | 100 | 90 | 90 | 90
3 | O=S(=O)(CCCCl)Oc1ccccc1Oc1ncc(F)cn1 [Example I-5] | 80 | 90 | 100 | 90 | 100 | 90 | 100 | 100 | 100 | 90 | 100 | 100 | 100 | 100 | 100 | – | 90 | 100 | 100
4 | O=S(=O)(CCCCl)Oc1c(F)cccc1Oc1ncc(Cl)cn1 [Example I-14] | 100 | – | 100 | 80 | 90 | 100 | 100 | 100 | 100 | 100 | 100 | 100 | 100 | 100 | 100 | – | 90 | 100 | 100
5 | C=CCCS(=O)(=O)Oc1c(F)cccc1Oc1ncc(Cl)cn1 [Example I-50] | 100 | – | 90 | – | 100 | 90 | 100 | 100 | 100 | 90 | 90 | 100 | – | – | – | – | – | 90 | 90
6 | O=S(=O)(CCCCCl)Oc1ccccc1Oc1ncc(Cl)cn1 [Example I-15] | 80 | – | – | 80 | 100 | 90 | 100 | 90 | 100 | 100 | 100 | 100 | 100 | 100 | 100 | – | 100 | 100 | 100
7 | Cc1cccc(Oc2ncc(F)cn2)c1OS(=O)(=O)CCC(F)(F)F [Example I-45] | 90 | – | 90 | – | 100 | 80 | 100 | 80 | 100 | 90 | 100 | 100 | 100 | 100 | 100 | – | – | 100 | 100
8 | O=S(=O)(CCC(F)=C(F)F)Oc1c(F)cccc1Oc1ncc(Cl)cn1 [Example I-70] | 100 | – | – | – | 100 | 100 | 100 | 100 | 100 | – | – | – | – | – | – | – | – | – | –
9 | O=S(=O)(CCCC(F)(F)F)Oc1c(F)cccc1Oc1ncc(Br)cn1 [Example I-41] | 100 | 100 | 100 | 100 | 100 | 100 | 100 | 100 | 100 | 100 | 100 | 100 | 90 | 90 | 90 | – | – | – | –
10 | O=S(=O)(CCC1CC1)Oc1c(F)cccc1Oc1ncc(Cl)cn1 [Example I-55] | 90 | – | – | 90 | 100 | 100 | 100 | 100 | 100 | – | 90 | 100 | 90 | 90 | 90 | – | 90 | 90 | 90
11 | O=S(=O)(CCC(F)=C(F)F)Oc1c(Cl)cccc1Oc1ncc(Cl)cn1 [Example I-73] | 80 | – | – | – | – | 90 | 100 | 90 | 100 | – | 90 | 100 | 90 | 100 | 100 | – | 90 | 100 | 100
12 | N#Cc1cccc(Oc2ncc(Cl)cn2)c1OS(=O)(=O)CCCC(F)(F)F [Example I-81] | 90 | – | – | 90 | 100 | 100 | 100 | 100 | 100 | – | – | – | – | – | – | – | – | – | –
13 | O=S(=O)(CCC(F)(F)F)Oc1c(Cl)cccc1Oc1ncc(Cl)cn1 [Example I-38] | 100 | 100 | 100 | 100 | 100 | 100 | 100 | 100 | 100 | – | 100 | 100 | 90 | 90 | 90 | – | – | – | –
